In US12097192B2 (Corcept Therapeutics Incorporated, priority 2019, dated 2024):

Tests used:
Assay type in all cases: in vivo, human
[1] = test system: Cushing's syndrome patients; assay: Cushing's syndrome patient study: absolute eosinophils and lymphocytes; conditions: All Subjects, mITT
Excerpt: (§1) All patients gave informed consent before participating in any study-related procedures. […] The study protocol called for patient visits to the study site at screening, on Day 1 (baseline), Weeks 2, 4, 6, 8, 10, and 12, and after a 4-week follow-up period for Group 1. For Group 2, the protocol called for patient visits to the study site at screening, on Day 1 (baseline), Weeks 2, 4, 6, 8, 10, 12, 14, and 16, and after a 4-week follow-up period. Patient dosing will be done at home, except on days of study visits. […] The safety protocol also included assessments by physical examination findings, vital signs, ECG results, pregnancy tests, clinical laboratory test results (hematology and chemistry panels), adverse events (AEs), and concomitant medications. […] It ignores noncompliance, protocol deviations, withdrawal, and anything that happens after randomization. In contrast, per-protocol (PP) analysis refers to inclusion in the analysis of only those patients who strictly adhered to the protocol. The PP analysis provides an estimate of the true efficacy of an intervention, i.e., among those who completed the treatment as planned.

[2] = test system: Cushing's syndrome patients; assay: Cushing's syndrome patient study: POMC/proACTH and HPA axis; conditions: for POMC and proACTH mean change from Baseline to Last Observed: All Subjects
Excerpt: All patients gave informed consent before participating in any study-related procedures. […] The study protocol called for patient visits to the study site at screening, on Day 1 (baseline), Weeks 2, 4, 6, 8, 10, and 12, and after a 4-week follow-up period for Group 1. For Group 2, the protocol called for patient visits to the study site at screening, on Day 1 (baseline), Weeks 2, 4, 6, 8, 10, 12, 14, and 16, and after a 4-week follow-up period. Patient dosing will be done at home, except on days of study visits. […] It ignores noncompliance, protocol deviations, withdrawal, and anything that happens after randomization. In contrast, per-protocol (PP) analysis refers to inclusion in the analysis of only those patients who strictly adhered to the protocol. The PP analysis provides an estimate of the true efficacy of an intervention, i.e., among those who completed the treatment as planned.

[3] = test system: Cushing's syndrome patients; assay: Phase 2 CORT125134-451 study in Cushing syndrome: overall clinical efficacy
Experimental: All patients gave informed consent before participating in any study-related procedures. […] Response criteria for hyperglycemia were changes from baseline in glucose tolerance as measured by: ≥0.5% decrease in HbA1c, normalization or ≥50 mg/dL decrease in 2-hr OGTT glucose, or decrease in total daily insulin (≥25%) or sulfonylurea dose (≥50%). Response criteria for hypertension (HTN) was a ≥5 mm Hg decrease in mean systolic and/or diastolic blood pressure (SBP/DBP). […] The efficacy of the drug in Cushing syndrome was assessed based on the improvement of morbidities associated with excess cortisol activity, e.g. hyperglycaemia, hypertension, cognitive dysfunction, depression, poor quality of life, hypercoagulopathy and obesity. (A morbidity associated with excess cortisol, e.g., associated with hypercortisolemia, Cushing's syndrome, Cushing's disease, etc., is also termed a “comorbidity”.)

[4] = test system: Cushing's syndrome patients; assay: Cushing's syndrome patient study: coagulation factors, platelets, aPTT
Excerpt: as §1

[5] = Group 1 (100-200 mg/day, 12 weeks)
[6] = Group 2 (250-400 mg/day, 16 weeks)
[7] = Abnormal at Baseline, mITT, Group 1 (100-200 mg/day, 12 weeks)
[8] = Abnormal at Baseline, mITT, Group 2 (250-400 mg/day, 16 weeks)
[9] = Abnormal at Baseline, mITT, Overall
[10] = Abnormal at Baseline, mPP, Group 1 (100-200 mg/day, 12 weeks)
[11] = Abnormal at Baseline, mPP, Group 2 (250-400 mg/day, 16 weeks)
[12] = Abnormal at Baseline, mPP, Overall
[13] = All Subjects, mITT, Group 1 (100-200 mg/day, 12 weeks)
[14] = All Subjects, mITT, Group 2 (250-400 mg/day, 16 weeks)
[15] = All Subjects, mPP, Group 1 (100-200 mg/day, 12 weeks)
[16] = All Subjects, mPP, Group 2 (250-400 mg/day, 16 weeks)

Compound: Cn1cc(S(=O)(=O)N2CCC3=Cc4c(cnn4-c4ccc(F)cc4)C[C@]3(C(=O)c3cc(C(F)(F)F)ccn3)C2)cn1 [relacorilant, (R)-(1-(4-fluorophenyl)-6-((1-methyl-1H-pyrazol-4-yl)sulfonyl)-4,4a,5,6,7,8-hexahydro-1H-pyrazolo[3,4-g]isoquinolin-4a-yl) (4-(trifluoromethyl)pyridin-2-yl)methanone]
- Absolute Eosinophils mean change from Baseline to Last Observed [1, 5]: 0.05 10^{super 9
- Absolute Lymphocytes mean change from Baseline to Last Observed [1, 5]: −0.15 10^{super 9
- Absolute Eosinophils mean change from Baseline to Last Observed [1, 6]: 0.05 10^{super 9
- Absolute Lymphocytes mean change from Baseline to Last Observed [1, 6]: 0.26 10^{super 9
- Absolute Eosinophils mean change from Baseline to Last Observed ([1]; Overall): 0.05 10^{super 9
- Absolute Lymphocytes mean change from Baseline to Last Observed ([1]; Overall): 0.05 10^{super 9
- POMC and proACTH mean change from Baseline to Last Observed ([2]; mITT, Group 2 (250-400 mg/day, 16 weeks)): 7.91 pmol/L
- POMC and proACTH mean change from Baseline to Last Observed ([2]; mITT, Overall): 7.91 pmol/L
- POMC and proACTH mean change from Baseline to Last Observed ([2]; mPP, Group 2 (250-400 mg/day, 16 weeks)): 7.91 pmol/L
- POMC and proACTH mean change from Baseline to Last Observed ([2]; mPP, Overall): 7.91 pmol/L
- restoration of the suppressed HPA axis ([2]; patients with adrenal Cushing syndrome): half of the cases
- reduction of the effects of excess cortisol ([3]; Cushing's syndrome patients): effective in reducing many of the effects of excess cortisol
- time to improvement in hyperglycaemia and hypertension ([3]; after achieving a therapeutic dose): within two weeks
- clinical effect on hyperglycemia and hypertension ([3]; dosages up to 400 mg/day): clinical improvement in hyperglycemia and hypertension
- secondary endpoints: hypercoagulopathy, liver function, serum osteocalcin, cognitive function, depression, quality of life ([3]; high-dose group): statistically significant improvements
- efficacy relative to previous metyrapone therapy (primary and secondary endpoints) ([3]; two patients treated previously with metyrapone): higher efficacy
- Factor IX mean change from Baseline to Last Observed [4, 7]: −40.8%
- Factor X mean change from Baseline to Last Observed [4, 7]: −15.8%
- Thrombin-Antithrombin mean change from Baseline to Last Observed [4, 7]: 1.61 µg/L
- Factor IX mean change from Baseline to Last Observed [4, 8]: −4.2%
- Factor X mean change from Baseline to Last Observed [4, 8]: −22%
- Thrombin-Antithrombin mean change from Baseline to Last Observed [4, 8]: -9.83 µg/L
- von Willebrand Factor mean change from Baseline to Last Observed [4, 8]: −18.5%
- Factor IX mean change from Baseline to Last Observed [4, 9]: −22.5%
- Factor X mean change from Baseline to Last Observed [4, 9]: −18.13%
- Thrombin-Antithrombin mean change from Baseline to Last Observed [4, 9]: -3.88 µg/L
- von Willebrand Factor mean change from Baseline to Last Observed [4, 9]: −18.5%
- Factor IX mean change from Baseline to Last Observed [4, 10]: −40.8%
- Factor X mean change from Baseline to Last Observed [4, 10]: −15.8%
- Thrombin-Antithrombin mean change from Baseline to Last Observed [4, 10]: 1.61 µg/L
- Factor IX mean change from Baseline to Last Observed [4, 11]: −4.2%
- Factor X mean change from Baseline to Last Observed [4, 11]: −22%
- Thrombin-Antithrombin mean change from Baseline to Last Observed [4, 11]: -9.83 µg/L
- von Willebrand Factor mean change from Baseline to Last Observed [4, 11]: −18.5%
- Factor IX mean change from Baseline to Last Observed [4, 12]: −22.5%
- Factor X mean change from Baseline to Last Observed [4, 12]: −18.13%
- Thrombin-Antithrombin mean change from Baseline to Last Observed [4, 12]: -3.88 µg/L
- von Willebrand Factor mean change from Baseline to Last Observed [4, 12]: −18.5%
- Factor IX mean change from Baseline to Last Observed [4, 13]: −11.59%
- Factor VIII mean change from Baseline to Last Observed [4, 13]: −11.94%
- Factor X mean change from Baseline to Last Observed [4, 13]: −0.06%
- Platelet Count mean change from Baseline to Last Observed [4, 13]: −62.82 10^9/L
- Thrombin-Antithrombin mean change from Baseline to Last Observed [4, 13]: 1.48 µg/L
- aPTT mean change from Baseline to Last Observed [4, 13]: 2.24 s
- von Willebrand Factor mean change from Baseline to Last Observed [4, 13]: 2.88%
- Factor IX mean change from Baseline to Last Observed [4, 14]: 6.44%
- Factor VIII mean change from Baseline to Last Observed [4, 14]: −26.38%
- Factor X mean change from Baseline to Last Observed [4, 14]: −8.88%
- Platelet Count mean change from Baseline to Last Observed [4, 14]: −74.82 10^9/L
- Thrombin-Antithrombin mean change from Baseline to Last Observed [4, 14]: -7.13 µg/L
- aPTT mean change from Baseline to Last Observed [4, 14]: 0.5 s
- von Willebrand Factor mean change from Baseline to Last Observed [4, 14]: 10.88%
- Factor IX mean change from Baseline to Last Observed ([4]; All Subjects, mITT, Overall): −2.85%
- Factor VIII mean change from Baseline to Last Observed ([4]; All Subjects, mITT, Overall): −18.94%
- Factor X mean change from Baseline to Last Observed ([4]; All Subjects, mITT, Overall): −4.33%
- Platelet Count mean change from Baseline to Last Observed ([4]; All Subjects, mITT, Overall): −68.82 10^9/L
- Thrombin-Antithrombin mean change from Baseline to Last Observed ([4]; All Subjects, mITT, Overall): -2.69 µg/L
- aPTT mean change from Baseline to Last Observed ([4]; All Subjects, mITT, Overall): 1.45 s
- von Willebrand Factor mean change from Baseline to Last Observed ([4]; All Subjects, mITT, Overall): 6.76%
- Factor IX mean change from Baseline to Last Observed [4, 15]: −11.59%
- Factor VIII mean change from Baseline to Last Observed [4, 15]: −11.94%
- Factor X mean change from Baseline to Last Observed [4, 15]: −0.06%
- Thrombin-Antithrombin mean change from Baseline to Last Observed [4, 15]: 1.48 µg/L
- aPTT mean change from Baseline to Last Observed [4, 15]: 2.24 s
- von Willebrand Factor mean change from Baseline to Last Observed [4, 15]: 2.88%
- Factor IX mean change from Baseline to Last Observed [4, 16]: 6.44%
- Factor VIII mean change from Baseline to Last Observed [4, 16]: −26.38%
- Factor X mean change from Baseline to Last Observed [4, 16]: −8.88%
- Thrombin-Antithrombin mean change from Baseline to Last Observed [4, 16]: -7.13 µg/L
- aPTT mean change from Baseline to Last Observed [4, 16]: 0.5 s
- von Willebrand Factor mean change from Baseline to Last Observed [4, 16]: 10.88%
- Factor IX mean change from Baseline to Last Observed ([4]; All Subjects, mPP, Overall): −2.85%
- Factor VIII mean change from Baseline to Last Observed ([4]; All Subjects, mPP, Overall): −18.94%
- Factor X mean change from Baseline to Last Observed ([4]; All Subjects, mPP, Overall): −4.33%
- Thrombin-Antithrombin mean change from Baseline to Last Observed ([4]; All Subjects, mPP, Overall): -2.69 µg/L
- aPTT mean change from Baseline to Last Observed ([4]; All Subjects, mPP, Overall): 1.45 s
- von Willebrand Factor mean change from Baseline to Last Observed ([4]; All Subjects, mPP, Overall): 6.76%
- coagulation factors (FIG. 3) ([4]; Cushing's syndrome patients): improvement in coagulation factors
- onset of improvement/normalization of abnormally elevated coagulation factors ([4]; treatment with relacorilant): as early as after one month
